Values of other authors, collected in patent publication US9320295B2, “Compositions containing non-polar compounds” (Virun, Inc., priority 2010, dated 2016).

In the case of sucrose dipalmitate, the HLB value is given as 7.4. In the case of sucrose distearate, the HLB value is listed as 3. In the case of sucrose monopalmitate, the HLB value is listed as over 10.
